Data from ChEMBL document CHEMBL4052645, “Discovery of potent and efficacious pyrrolopyridazines as dual JAK1/3 inhibitors” (Bioorg Med Chem Lett, 2017).
pEC50, pIC50: −log10 of the molar value. Calls of active or inactive are those of the source. The calls are words filed in the database; no cut-off is given here.

Key:
[1] = Oral bioavailability in mouse; format: ADME, organism-based; settings: in vivo
Mus musculus [2] = species on record: Mus musculus; assay: Clearance of compound in mouse relative to hepatic blood flow; format: ADME; settings: in vivo
Mus musculus [3] = assay: Antiarthritic activity in collagen-induced arthritis mouse model assessed as reduction in inflammation at 10 mg/kg, po qd measured up to 41 days; format: functional, organism-based
[4] = Drug concentration in mouse at 10 mg/kg, po qd after 24 hrs; format: ADME, organism-based; settings: in vivo, read-out: Drug uptake
Mus musculus [5] = assay: Antiarthritic activity in collagen-induced mouse model assessed as […] at 10 mg/kg, po qd up to 41 days; format: functional, organism-based
Mus musculus [6] = assay: Antiarthritic activity in collagen-induced mouse model assessed as […] at 2 mg/kg, po qd up to 41 days; format: functional, organism-based
[7] = Protein binding in human serum; format: ADME, cell-free; settings: read-out: PB (converted)
[8] = Selectivity ratio of IC50 for JAK2 dependent EPO-induced STAT5A phosphorylation in human TF1 cells to IC50 for JAK1/JAK3 dependent IL2-induced STAT3 phosphorylation in human PBMC derived T-cells
[9] = Permeability from apical side to basolateral side in human Caco2 cells; format: ADME, cell-based; settings: Caco-2, read-out: permeability
[10] = Protein binding in mouse plasma at 10 mg/kg, po; format: ADME, organism-based; settings: read-out: PPB (converted)
[11] = target: Nuclear receptor subfamily 1 group I member 2 (Homo sapiens, UniProt O75469); assay: Activation of PXR (unknown origin); format: ADME
Homo sapiens = species on record: Homo sapiens; assay: Inhibition of sodium channel (unknown origin) at 10 uM by patch clamp assay
[12] = Protein binding in human plasma; format: ADME, cell-free; settings: read-out: PPB (converted)
[13] = Protein binding in rat plasma; format: ADME, cell-free; settings: read-out: PPB (converted)
[14] = Tmax in BALB/c mouse at 10 mg/kg, po; format: ADME, organism-based; settings: in vivo
[15] = AUC in BALB/c mouse at 10 mg/kg, po; format: ADME, organism-based; settings: in vivo
[16] = Half life in BALB/c mouse at 10 mg/kg, po; format: ADME, organism-based; settings: in vivo
[17] = Half life in BALB/c mouse at 2 mg/kg, iv; format: ADME, organism-based; settings: in vivo
[18] = Volume of distribution at steady state in BALB/c mouse at 2 mg/kg, iv; format: ADME, organism-based; settings: in vivo, read-out: Vdss
[19] = Cmax in Sprague-Dawley rat at 10 mg/kg, po; format: ADME, organism-based; parameters: dose 10 mg/kg, route oral; settings: in vivo
[20] = AUC in Sprague-Dawley rat at 10 mg/kg, po; format: ADME, organism-based; settings: in vivo
[21] = Half life in Sprague-Dawley rat at 10 mg/kg, po; format: ADME, organism-based; settings: in vivo
[22] = Oral bioavailability in Sprague-Dawley rat at 10 mg/kg; format: ADME, organism-based; settings: in vivo
[23] = AUC in Sprague-Dawley rat at 2 mg/kg, iv; format: ADME, organism-based; settings: in vivo
Oryctolagus cuniculus [24] = assay: Cardiotoxicity in rabbit assessed as decrease in mean arterial blood pressure at >3 mg/kg; format: toxicity, organism-based; settings: in vivo
Oryctolagus cuniculus [25] = assay: Cardiotoxicity in rabbit assessed as increase in heart rate at >3 mg/kg; format: toxicity, organism-based; settings: in vivo
Rattus norvegicus [26] = assay: Cardiotoxicity in rat assessed as decrease in blood pressure at 30 mg/kg, po; format: toxicity, organism-based; parameters: scale not given: the % may be the effect or the level left; settings: in vivo
Rattus norvegicus [27] = assay: Toxicity in rat assessed as mortality at 200 mg/kg; format: organism-based; settings: in vivo
[28] = target: Rho-associated protein kinase 1 (Homo sapiens, UniProt Q13464); assay: Inhibition of Rho-associated protein kinase 1 (unknown origin)
[29] = target: Rho-associated protein kinase 2 (Homo sapiens, UniProt O75116); assay: Inhibition of Rho-associated protein kinase 2 (unknown origin)
[30] = target: Serine/threonine-protein kinase DCLK2 (Homo sapiens) (UniProt Q8N568); assay: Inhibition of wild-type human partial length DCAMKL2 (K273 to V664 residues) expressed in bacterial expression system assessed as residual activity at 50 nM by Kinomescan method relative to control
[31] = target: Ephrin type-B receptor 2 (Homo sapiens) (UniProt P29323); assay: Inhibition of wild-type human partial length EPHB2 (I597 to L902 residues) expressed in bacterial expression system assessed as residual activity at 50 nM by Kinomescan method relative to control
[32] = target: Protein kinase C iota type (Homo sapiens) (UniProt P41743); assay: Inhibition of recombinant human PKCiota (H215 to V587 residues) expressed in mammalian expression system assessed as residual activity at 50 nM by Kinomescan method relative to control
[33] = target: Serine/threonine-protein kinase 16 (Homo sapiens) (UniProt O75716); assay: Inhibition of wild-type human partial length STK16 (G11 to I305 residues) expressed in bacterial expression system assessed as residual activity at 50 nM by Kinomescan method relative to control
[34] = target: Calcium/calmodulin-dependent protein kinase type 1 (Homo sapiens) (UniProt Q14012); assay: Inhibition of wild-type human full length CAMK1A (M1 to L370 residues) expressed in bacterial expression system assessed as residual activity at 50 nM by Kinomescan method relative to control
[35] = target: Casein kinase I isoform alpha (Homo sapiens) (UniProt P48729); assay: Inhibition of wild-type human partial length CK1A (M1 to L450 residues) expressed in mammalian expression system assessed as residual activity at 50 nM by Kinomescan method relative to control
[36] = target: Dual specificity tyrosine-phosphorylation-regulated kinase 1B (Homo sapiens) (UniProt Q9Y463); assay: Inhibition of wild-type human full length DYRK1B (M1 to S629 residues) expressed in bacterial expression system assessed as residual activity at 50 nM by Kinomescan method relative to control
[37] = target: Tyrosine-protein kinase JAK1 (Homo sapiens, UniProt P23458); assay: Inhibition of wild-type human partial length JAK1 JH2 pseudokinase domain (R537 to D855 residues) expressed in mammalian expression system assessed as residual activity at 50 nM by Kinomescan method relative to control
[38] = target: Serine/threonine-protein kinase NIM1 (Homo sapiens) (UniProt Q8IY84); assay: Inhibition of wild-type human partial length NIM1 (Q44 to N355 residues) expressed in mammalian expression system assessed as residual activity at 50 nM by Kinomescan method relative to control
[39] = target: Serine/threonine-protein kinase PAK 6 (Homo sapiens) (UniProt Q9NQU5); assay: Inhibition of wild-type human partial length PAK6 (N298 to C681 residues) expressed in bacterial expression system assessed as residual activity at 50 nM by Kinomescan method relative to control
[40] = test system: Casein kinase I isoform alpha-like; assay: Inhibition of CK1A2 (unknown origin) assessed as residual activity at 50 nM by Kinomescan method relative to control; settings: Homo sapiens
[41] = Inhibition of ACTR2 (unknown origin) assessed as residual activity at 50 nM by Kinomescan method relative to control; settings: Homo sapiens
[42] = test system: Ribosomal protein S6 kinase alpha-2; assay: Inhibition of wild-type human partial length C-terminal RSK3 kinase domain 2 (V403 to K700 residues) expressed in bacterial expression system assessed as residual activity at 50 nM by Kinomescan method relative to control

Rho-associated protein kinase 2, sequence (O75116 whole entry, the tested form may be a part): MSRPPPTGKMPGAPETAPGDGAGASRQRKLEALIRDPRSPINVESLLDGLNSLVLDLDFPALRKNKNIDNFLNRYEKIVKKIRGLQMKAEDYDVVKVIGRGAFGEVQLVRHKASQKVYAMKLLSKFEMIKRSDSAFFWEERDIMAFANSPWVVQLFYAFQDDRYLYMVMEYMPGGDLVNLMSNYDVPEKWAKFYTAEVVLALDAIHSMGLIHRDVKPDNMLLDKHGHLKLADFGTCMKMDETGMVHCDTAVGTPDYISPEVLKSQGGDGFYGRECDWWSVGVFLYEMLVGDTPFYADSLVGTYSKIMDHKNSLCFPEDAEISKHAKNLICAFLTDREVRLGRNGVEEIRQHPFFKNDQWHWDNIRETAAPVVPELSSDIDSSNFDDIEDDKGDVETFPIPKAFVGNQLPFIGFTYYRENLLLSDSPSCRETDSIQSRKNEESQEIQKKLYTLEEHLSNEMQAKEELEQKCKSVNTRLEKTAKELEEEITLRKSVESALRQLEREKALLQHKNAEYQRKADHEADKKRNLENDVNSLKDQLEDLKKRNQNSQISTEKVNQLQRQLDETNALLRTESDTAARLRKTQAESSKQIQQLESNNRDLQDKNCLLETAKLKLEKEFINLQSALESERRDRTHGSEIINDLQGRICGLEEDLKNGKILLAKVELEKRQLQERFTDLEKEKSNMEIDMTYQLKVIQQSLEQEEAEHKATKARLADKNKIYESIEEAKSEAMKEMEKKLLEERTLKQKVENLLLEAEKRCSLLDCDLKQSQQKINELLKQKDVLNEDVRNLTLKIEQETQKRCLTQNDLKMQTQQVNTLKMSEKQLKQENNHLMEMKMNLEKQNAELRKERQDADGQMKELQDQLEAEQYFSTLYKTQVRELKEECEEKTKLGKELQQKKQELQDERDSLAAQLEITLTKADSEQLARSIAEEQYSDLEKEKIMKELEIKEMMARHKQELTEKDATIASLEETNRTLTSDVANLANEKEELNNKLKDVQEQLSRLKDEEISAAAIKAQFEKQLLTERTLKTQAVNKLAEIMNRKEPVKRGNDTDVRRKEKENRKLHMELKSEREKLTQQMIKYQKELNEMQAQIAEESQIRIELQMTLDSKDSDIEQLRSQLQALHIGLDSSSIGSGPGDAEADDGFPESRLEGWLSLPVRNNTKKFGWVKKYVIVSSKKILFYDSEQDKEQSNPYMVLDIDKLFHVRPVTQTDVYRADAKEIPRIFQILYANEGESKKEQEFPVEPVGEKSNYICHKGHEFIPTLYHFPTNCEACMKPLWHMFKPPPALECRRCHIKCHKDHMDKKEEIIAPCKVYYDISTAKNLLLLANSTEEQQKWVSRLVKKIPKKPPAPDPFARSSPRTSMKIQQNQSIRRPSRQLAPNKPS
Calcium/calmodulin-dependent protein kinase type 1 (Homo sapiens), sequence (Q14012 whole entry, looked up, the tested form may be a part, canonical isoform): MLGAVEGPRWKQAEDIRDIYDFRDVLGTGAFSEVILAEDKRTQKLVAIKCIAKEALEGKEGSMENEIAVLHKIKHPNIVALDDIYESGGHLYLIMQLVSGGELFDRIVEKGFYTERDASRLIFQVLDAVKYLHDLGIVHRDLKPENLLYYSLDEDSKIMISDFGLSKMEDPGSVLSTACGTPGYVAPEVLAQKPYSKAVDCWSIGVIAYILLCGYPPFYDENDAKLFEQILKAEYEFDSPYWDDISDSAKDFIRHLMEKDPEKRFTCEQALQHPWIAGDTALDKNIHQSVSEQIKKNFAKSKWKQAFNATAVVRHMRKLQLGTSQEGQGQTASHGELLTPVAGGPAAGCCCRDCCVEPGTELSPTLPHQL
Serine/threonine-protein kinase NIM1 (Homo sapiens), sequence (Q8IY84 whole entry, the tested form may be a part): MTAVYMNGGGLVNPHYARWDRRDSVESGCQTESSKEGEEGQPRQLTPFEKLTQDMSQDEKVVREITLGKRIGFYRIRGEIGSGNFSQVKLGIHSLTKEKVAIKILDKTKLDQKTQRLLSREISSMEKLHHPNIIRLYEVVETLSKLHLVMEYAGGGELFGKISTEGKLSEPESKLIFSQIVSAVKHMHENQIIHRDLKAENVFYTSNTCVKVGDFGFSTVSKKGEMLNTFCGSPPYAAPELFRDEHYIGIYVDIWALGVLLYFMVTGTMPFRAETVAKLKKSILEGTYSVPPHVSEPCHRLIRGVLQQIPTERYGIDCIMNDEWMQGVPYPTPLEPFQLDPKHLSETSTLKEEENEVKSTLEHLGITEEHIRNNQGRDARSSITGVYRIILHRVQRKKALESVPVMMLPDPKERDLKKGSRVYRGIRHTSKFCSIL
Protein kinase C iota type (Homo sapiens), sequence (P41743 whole entry, the tested form may be a part): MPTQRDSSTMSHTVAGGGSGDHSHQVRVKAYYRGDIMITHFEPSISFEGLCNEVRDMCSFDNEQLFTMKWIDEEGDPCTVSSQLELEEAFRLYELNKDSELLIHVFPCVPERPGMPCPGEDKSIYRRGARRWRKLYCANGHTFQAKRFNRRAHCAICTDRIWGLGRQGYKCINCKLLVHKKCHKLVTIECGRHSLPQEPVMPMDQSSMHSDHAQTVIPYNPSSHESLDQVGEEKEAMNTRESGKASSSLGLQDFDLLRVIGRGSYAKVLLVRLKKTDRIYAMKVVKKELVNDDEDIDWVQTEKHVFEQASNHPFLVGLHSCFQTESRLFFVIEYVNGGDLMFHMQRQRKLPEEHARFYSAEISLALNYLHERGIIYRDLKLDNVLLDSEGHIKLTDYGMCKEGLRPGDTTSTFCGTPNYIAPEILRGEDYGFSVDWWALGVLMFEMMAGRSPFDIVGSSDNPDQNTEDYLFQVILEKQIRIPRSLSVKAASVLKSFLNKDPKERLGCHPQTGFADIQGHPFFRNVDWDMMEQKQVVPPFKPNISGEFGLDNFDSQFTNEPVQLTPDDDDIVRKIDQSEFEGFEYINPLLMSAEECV
Tyrosine-protein kinase JAK1, sequence (P23458 whole entry, the tested form may be a part): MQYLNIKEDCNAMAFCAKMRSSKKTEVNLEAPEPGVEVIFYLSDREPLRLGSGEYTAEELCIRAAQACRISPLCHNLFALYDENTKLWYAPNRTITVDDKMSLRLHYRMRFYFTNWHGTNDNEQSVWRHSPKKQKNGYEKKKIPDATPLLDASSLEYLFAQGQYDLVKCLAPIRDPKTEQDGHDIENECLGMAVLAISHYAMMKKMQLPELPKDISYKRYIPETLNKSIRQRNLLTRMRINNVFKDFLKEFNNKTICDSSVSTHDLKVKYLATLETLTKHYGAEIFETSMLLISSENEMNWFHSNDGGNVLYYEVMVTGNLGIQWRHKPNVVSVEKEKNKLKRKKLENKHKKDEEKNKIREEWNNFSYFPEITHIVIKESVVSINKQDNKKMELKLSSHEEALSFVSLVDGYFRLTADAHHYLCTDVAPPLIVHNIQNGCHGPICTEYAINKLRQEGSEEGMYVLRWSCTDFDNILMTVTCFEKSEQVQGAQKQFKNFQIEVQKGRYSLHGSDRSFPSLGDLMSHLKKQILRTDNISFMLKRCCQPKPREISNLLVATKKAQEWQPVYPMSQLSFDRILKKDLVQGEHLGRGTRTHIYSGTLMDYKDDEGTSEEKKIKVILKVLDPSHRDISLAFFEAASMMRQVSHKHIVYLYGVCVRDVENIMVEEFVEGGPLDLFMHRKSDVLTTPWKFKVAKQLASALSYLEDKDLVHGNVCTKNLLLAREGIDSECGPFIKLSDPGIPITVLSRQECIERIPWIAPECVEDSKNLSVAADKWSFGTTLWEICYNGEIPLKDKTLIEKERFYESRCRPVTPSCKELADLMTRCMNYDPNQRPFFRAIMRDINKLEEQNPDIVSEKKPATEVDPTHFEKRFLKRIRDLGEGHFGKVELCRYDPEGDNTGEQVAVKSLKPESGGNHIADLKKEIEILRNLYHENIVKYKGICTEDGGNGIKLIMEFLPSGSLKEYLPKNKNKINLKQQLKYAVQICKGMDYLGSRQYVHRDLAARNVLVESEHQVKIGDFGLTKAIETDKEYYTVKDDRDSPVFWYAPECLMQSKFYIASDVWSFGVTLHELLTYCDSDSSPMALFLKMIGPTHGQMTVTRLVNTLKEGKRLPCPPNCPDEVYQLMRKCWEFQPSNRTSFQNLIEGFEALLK
Nuclear receptor subfamily 1 group I member 2, sequence (O75469 whole entry): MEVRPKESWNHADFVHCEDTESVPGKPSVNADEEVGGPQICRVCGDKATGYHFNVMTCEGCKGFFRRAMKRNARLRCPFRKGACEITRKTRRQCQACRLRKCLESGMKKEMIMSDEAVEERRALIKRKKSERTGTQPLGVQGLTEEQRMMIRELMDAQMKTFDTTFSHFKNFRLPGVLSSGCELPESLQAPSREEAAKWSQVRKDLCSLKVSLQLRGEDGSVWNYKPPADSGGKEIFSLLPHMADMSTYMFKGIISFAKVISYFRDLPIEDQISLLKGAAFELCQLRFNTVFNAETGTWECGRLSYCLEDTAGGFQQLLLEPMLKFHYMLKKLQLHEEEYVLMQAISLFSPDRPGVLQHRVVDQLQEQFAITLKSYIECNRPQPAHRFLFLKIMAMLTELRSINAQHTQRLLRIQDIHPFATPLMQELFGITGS
Dual specificity tyrosine-phosphorylation-regulated kinase 1B (Homo sapiens), sequence (Q9Y463 whole entry, looked up, the tested form may be a part): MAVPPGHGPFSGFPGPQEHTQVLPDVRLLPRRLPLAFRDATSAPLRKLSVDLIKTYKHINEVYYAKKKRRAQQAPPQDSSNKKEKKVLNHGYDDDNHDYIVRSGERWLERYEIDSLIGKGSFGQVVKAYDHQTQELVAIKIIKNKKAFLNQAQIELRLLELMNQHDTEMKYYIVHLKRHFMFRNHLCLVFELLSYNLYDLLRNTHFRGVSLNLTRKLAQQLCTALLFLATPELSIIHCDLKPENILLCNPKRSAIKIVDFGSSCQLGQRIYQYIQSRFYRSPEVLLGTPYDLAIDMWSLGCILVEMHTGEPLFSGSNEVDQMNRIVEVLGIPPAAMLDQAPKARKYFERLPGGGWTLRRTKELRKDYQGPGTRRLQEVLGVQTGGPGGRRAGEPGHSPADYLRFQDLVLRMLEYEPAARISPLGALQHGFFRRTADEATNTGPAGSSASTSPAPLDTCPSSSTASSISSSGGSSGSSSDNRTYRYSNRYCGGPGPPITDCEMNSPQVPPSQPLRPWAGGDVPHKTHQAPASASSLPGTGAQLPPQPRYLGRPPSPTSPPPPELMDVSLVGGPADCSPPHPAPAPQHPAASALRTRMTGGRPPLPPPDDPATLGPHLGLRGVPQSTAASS

Q: With `CC1(C)[C@H](Nc2c(C(N)=O)cnn3cc(-c4ccccc4)cc23)CC[C@]1(C)N` as the molecule, how does the bioavailability [1] read?
A: 67%

Q: What about the CL (Mus musculus [2]) of the same molecule?
A: 32%

Q: And the Activity (Mus musculus [3])?
A: Active

Q: What about the concentration at 24 h [4] of the same molecule?
A: 390 nM

Q: What about the Activity (Mus musculus [5]) of the same molecule?
A: Active

Q: And the Activity (Mus musculus [6])?
A: inactive

Q: And the fraction unbound [7]?
A: 0.52

Q: For `COc1ccc(-c2cc3c(N[C@@H]4CC[C@](C)(N)C4(C)C)c(C(N)=O)cnn3c2)cn1`, which “Ratio IC50” value [8] is on record?
A: 130

Q: And the Papp A→B [9]?
A: 2.6 ×10⁻⁶ cm/s

Q: And the fraction unbound [10]?
A: 0.07

Q: And the pEC50 [11]?
A: < 4.77

Q: And the inhibition (Homo sapiens)?
A: 71%

Q: What about the fraction unbound [12] of the same molecule?
A: 0.1

Q: What about the fraction unbound [13] of the same molecule?
A: 0.12

Q: What about the Tmax [14] of the same molecule?
A: 4 h

Q: And the AUC [15]?
A: 17.9 µM·h

Q: What about the half-life [16] of the same molecule?
A: 10.2 h

Q: What about the half-life [17] of the same molecule?
A: 6.5 h

Q: And the Vd [18]?
A: 8.2 L/kg

Q: And the Cmax [19]?
A: 600 nM

Q: And the AUC [20]?
A: 12.9 µM·h

Q: And the half-life [21]?
A: 12.2 h

Q: What about the bioavailability [22] of the same molecule?
A: 44%

Q: What about the AUC [23] of the same molecule?
A: 5.8 µM·h

Q: And the Activity (Oryctolagus cuniculus [24])?
A: Toxic

Q: And the Activity (Oryctolagus cuniculus [25])?
A: Toxic

Q: What about the Activity (Rattus norvegicus [26]) of the same molecule?
A: 14%

Q: And the Activity (Rattus norvegicus [27])?
A: Toxic

Q: And the pIC50 [28]?
A: 7.02

Q: What about the pIC50 [29] of the same molecule?
A: 7.37

Q: And the Activity [30]?
A: 100%

Q: And the Activity [31]?
A: 100%

Q: What about the Activity [32] of the same molecule?
A: 100%

Q: What about the Activity [33] of the same molecule?
A: 87%

Q: What about the Activity [34] of the same molecule?
A: 100%

Q: What about the Activity [35] of the same molecule?
A: 84%

Q: What about the Activity [36] of the same molecule?
A: 100%

Q: And the Activity [37]?
A: 78%

Q: And the Activity [38]?
A: 90%

Q: And the Activity [39]?
A: 87%

Q: And the Activity [40]?
A: 97%

Q: What about the Activity [41] of the same molecule?
A: 100%

Q: And the Activity [42]?
A: 93%
